What was measured:
Cdk5 = molecular target: T1, Cdk5 (Mus musculus, UniProt P49615); assay: Ex vivo acute striatal brain slice pharmacology, immunoblot of phospho-Thr75 DARPP-32 and phospho-Ser1116 NR2B; assay type: cell-based; conditions: acute striatal slices, 1 h treatment, 0-10 µM; read-out: IC50, Cdk5-dependent phosphorylation of DARPP-32 and NR2B
T1 construct: from tissue; host or cells: striatum of wild-type C57BL/6 mice (acute slices, or lysates after I.V. dosing)
Description: Brain slice pharmacology was performed as described ([Nishi et al., 2000]). Briefly, the mice were decapitated, and the brains were rapidly dissected and submerged in ice-cold normal Kreb’s solution (124 mM NaCl, 4 mM KCl, 26 mM NaHCO3, 1.25 mM KH2PO4, 1.5 mM MgSO4, 10 mM D-glucose, and 1.5 mM CaCl2). The brains were subsequently sectioned into normal Kreb’s solution at 350 µ thickness. The brain slices were transferred to a 30°C solution of normal Kreb’s containing 10 µM deaminase for a 1-h recovery period. The sections were then incubated in normal Kreb’s solution with and without the indicated compounds across the dose and time ranges indicated. The sections were rapidly snap-frozen in dry ice to terminate treatment regimes.
Immunoblotting was performed as previously described ([Umfress et al., 2021]). Mouse brains were rapidly dissected in an ice-cold solution of 50 mM NaF/PBS. The regions of interest were further dissected out and rapidly snap-frozen in dry ice. The frozen tissue was homogenized in boiling lysis buffer (1% SDS, 50 mM NaF) and sonicated with several three to four pulses at 40 dB. The samples were subsequently denatured at 90°C for 5 min. Protein concentration was determined by the BCA assay, and homogenates were diluted in 4x sample buffer, separated by SDS-PAGE, and transferred to 0.45-µm nitrocellulose membranes, blocked with 5% milk solution (1 h), and probed with primary antibodies (overnight). The following antibodies were used in the study: phospho-Ser549 synapsin I (Phosphosolutions), total synapsin I (Phosphosolutions), actin (Invitrogen), phospho-Ser1116 (in-house) ([Plattner et al., 2014]), and total NR2B (Phosphosolutions), phospho-Thr75, and total DARPP-32 (Cell Signaling Technology). Visualization was performed using the Licor CLX membrane scanner and Licor secondary antibodies.
In order to assess the functional inhibition of Cdk5 in intact brain tissue by the four compounds summarized in Figure 1, acutely prepared striatal slices were treated in a dose-dependent manner (0, 0.25, 0.5, 1, 5, and 10 µM) with each inhibitor for 1 h, and Cdk5 activity was assessed via immunoblotting the phosphorylation of established Cdk5 sites, phospho-Thr75 DARPP-32 and phospho-Ser1116 NR2B ([Bibb et al., 1999]; [Plattner et al., 2014]).

CDK5/p25 = CDK5/p25 (Homo sapiens, UniProt Q00535); assay: In vitro dose-response kinase inhibition assay; assay type: biochemical
CDK5/p25, sequence (Q00535 whole entry, species assumed): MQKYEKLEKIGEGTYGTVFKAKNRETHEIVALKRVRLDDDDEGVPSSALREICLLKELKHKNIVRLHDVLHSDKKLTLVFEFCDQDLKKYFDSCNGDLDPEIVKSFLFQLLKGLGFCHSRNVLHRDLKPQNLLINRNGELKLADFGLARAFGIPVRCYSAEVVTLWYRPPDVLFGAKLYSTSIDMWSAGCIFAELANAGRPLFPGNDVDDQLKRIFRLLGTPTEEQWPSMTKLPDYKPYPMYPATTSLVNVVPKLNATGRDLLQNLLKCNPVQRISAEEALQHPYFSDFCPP
CDK5/p25, sequence (Q15078 99-307 partner limits assumed, species assumed): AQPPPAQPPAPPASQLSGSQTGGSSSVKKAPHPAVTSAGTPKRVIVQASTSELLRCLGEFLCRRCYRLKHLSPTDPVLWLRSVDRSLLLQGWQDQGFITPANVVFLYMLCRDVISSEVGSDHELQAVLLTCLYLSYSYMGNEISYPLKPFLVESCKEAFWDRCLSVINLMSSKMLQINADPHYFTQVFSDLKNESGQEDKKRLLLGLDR
Description: (§1) In vitro phosphorylation reactions were conducted as dose-response kinase inhibition assays with three highly homologous CDKs, namely, Cdk2/CyclinE (1.5 nM), CDK5/p25 (0.35 nM), and Cdk9/CyclinT1 (9 nM). Briefly, the abovementioned kinases were incubated with ATP (30 μM), the corresponding substrate (20 μM), and an increasing concentration of 25–106 (0–5 μM) for 30 min.

Cdk2/CyclinE = Cdk2/CyclinE (Homo sapiens, UniProt P24941); assay: In vitro dose-response kinase inhibition assay; assay type: biochemical
Description: as §1

Cdk9/CyclinT1 = Cdk9/CyclinT1 (Homo sapiens, UniProt P50750); assay: In vitro dose-response kinase inhibition assay; assay type: biochemical; conditions: 30 min, ATP 30 μM
Cdk9/CyclinT1, sequence (P50750 whole entry, species assumed): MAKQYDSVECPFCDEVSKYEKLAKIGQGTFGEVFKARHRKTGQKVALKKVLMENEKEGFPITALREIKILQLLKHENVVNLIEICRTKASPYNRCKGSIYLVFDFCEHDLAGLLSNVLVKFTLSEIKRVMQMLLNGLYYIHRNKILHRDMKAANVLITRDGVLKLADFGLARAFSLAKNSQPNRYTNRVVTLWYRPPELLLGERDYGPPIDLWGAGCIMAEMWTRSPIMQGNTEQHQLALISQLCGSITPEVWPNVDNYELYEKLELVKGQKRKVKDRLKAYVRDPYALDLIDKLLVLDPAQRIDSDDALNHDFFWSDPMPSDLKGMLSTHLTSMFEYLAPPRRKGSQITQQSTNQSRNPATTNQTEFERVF
Cdk9/CyclinT1, sequence (O60563 whole entry partner, species assumed): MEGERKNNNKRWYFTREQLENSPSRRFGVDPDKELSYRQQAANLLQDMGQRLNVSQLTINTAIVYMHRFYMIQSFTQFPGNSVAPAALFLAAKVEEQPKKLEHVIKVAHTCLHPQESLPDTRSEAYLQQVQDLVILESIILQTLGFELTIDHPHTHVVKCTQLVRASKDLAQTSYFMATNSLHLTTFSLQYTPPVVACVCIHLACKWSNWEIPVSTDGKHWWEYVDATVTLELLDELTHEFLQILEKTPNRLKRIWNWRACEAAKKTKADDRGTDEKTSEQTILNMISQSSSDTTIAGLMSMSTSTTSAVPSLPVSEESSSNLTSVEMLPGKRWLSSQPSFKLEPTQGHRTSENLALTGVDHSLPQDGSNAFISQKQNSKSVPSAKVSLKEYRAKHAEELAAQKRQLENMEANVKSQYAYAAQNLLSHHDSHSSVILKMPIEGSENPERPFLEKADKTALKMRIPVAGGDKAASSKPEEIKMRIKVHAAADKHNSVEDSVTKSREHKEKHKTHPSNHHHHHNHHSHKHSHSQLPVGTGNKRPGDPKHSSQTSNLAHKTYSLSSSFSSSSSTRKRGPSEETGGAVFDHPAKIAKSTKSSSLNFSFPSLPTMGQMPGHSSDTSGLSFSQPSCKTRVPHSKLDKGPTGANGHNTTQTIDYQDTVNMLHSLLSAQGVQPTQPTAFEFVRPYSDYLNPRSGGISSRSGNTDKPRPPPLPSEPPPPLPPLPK
Description: as §1

T1 sequence (P49615 whole entry): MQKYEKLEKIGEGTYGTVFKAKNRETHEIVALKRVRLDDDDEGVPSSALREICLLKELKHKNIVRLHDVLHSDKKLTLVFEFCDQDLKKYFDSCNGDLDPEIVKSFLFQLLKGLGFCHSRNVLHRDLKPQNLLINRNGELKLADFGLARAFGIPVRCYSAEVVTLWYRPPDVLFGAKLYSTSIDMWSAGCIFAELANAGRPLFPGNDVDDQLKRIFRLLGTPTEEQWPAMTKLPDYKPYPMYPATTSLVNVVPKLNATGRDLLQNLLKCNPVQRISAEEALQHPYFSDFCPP
T1 sequence (P61809 2-307 partner limits assumed): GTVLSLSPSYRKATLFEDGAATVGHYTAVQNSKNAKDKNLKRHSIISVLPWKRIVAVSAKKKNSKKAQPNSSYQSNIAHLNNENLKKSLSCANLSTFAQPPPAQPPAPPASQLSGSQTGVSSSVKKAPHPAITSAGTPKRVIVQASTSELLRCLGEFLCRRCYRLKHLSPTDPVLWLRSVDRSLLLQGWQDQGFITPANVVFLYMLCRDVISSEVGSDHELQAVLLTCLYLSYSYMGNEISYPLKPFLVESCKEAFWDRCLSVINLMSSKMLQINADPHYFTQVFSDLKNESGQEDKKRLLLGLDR

In the case of COc1cc(CC(=O)Nc2cc(C3CCC3)[nH]n2)cc(OC)c1OC [25–106, N-(5-cyclobutyl-1H-pyrazol-3-yl)-2-(3,4,5-trimethoxyphenyl)acetamide], the IC50 (Cdk5) is reported as 500 to 1000 nM, the IC50 (CDK5/p25; 30 min, ATP 30 μM, read-out: IC50 CDK5/P35) is reported as 178 nM and the Ki (CDK5/p25; 30 min, ATP 30 μM, read-out: Ki CDK5/P35) is reported as 107 nM. For the same molecule, the “selectivity for Cdk5 than Cdk9” value (CDK5/p25; in vitro kinase assay) was “greater than 30 fold”, the IC50 (Cdk2/CyclinE; 30 min, ATP 30 μM, read-out: IC50 CDK2/Cyclin E) was 149 nM and the Ki (Cdk2/CyclinE; 30 min, ATP 30 μM, read-out: Ki CDK2/Cyclin E) was 89 nM. The “selectivity for Cdk2 than Cdk9” value (Cdk2/CyclinE; in vitro kinase assay) was “greater than 30 fold”, the IC50 (Cdk9/CyclinT1; read-out: IC50 CDK9/Cyclin T1) was 5710 nM and the Ki (Cdk9/CyclinT1; read-out: Ki CDK9/Cyclin T1) was 3430 nM.
